From ChEMBL document CHEMBL1201862, “PubChem BioAssay data set” (2004)
The source made the active and inactive calls.

Columns and labels:
[1] = luciferase reporter signal suppression in cells – H4 neuroglioma cells, luminescence, dose response (AID 1990); format: functional, cell-based
[2] = test system: BJ; assay: BJ-TERT fibroblast viability loss – cell-based, RAS-independent, luminescence, dose response (AID 1933); format: functional; conditions: Homo sapiens
[3] = Luminescence Cell-Based Dose Response HTS to Identify Inhibitors of 5'UTR Stem-Loop Driven Prion Protein mRNA Translation in H4 Neuroglioblastoma Cells. [Related pubchem assays: 1827 (Project Summary), 1813 (Primary HTS)]; format: functional
[4] = alpha-synuclein stem-loop luciferase translation blockers – H4 neuroglioma cells, luminescence, confirmation (AID 1988); format: functional, cell-based
[5] = test system: BJ; assay: cells; format: functional, cell-based; conditions: Homo sapiens
[6] = test system: BJ; assay: BJ-TERT-LT-ST fibroblast viability loss – cell-based, RAS-independent, luminescence, dose response (AID 1935); format: functional; conditions: Homo sapiens;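 note: BJ fibroblasts immortalized with TERT plus LT and ST oncogenes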
[7] = DRD fibroblast viability loss – cell-based, non-viral oncogenic, luminescence, dose response (AID 1934); format: functional; conditions: Homo sapiens
[8] = test system: BJ; assay: growth inhibition of engineered Ras-driven BJ cells – cell-based, alamar blue fluorescence, cherrypicked samples, dose response (AID 2631); format: functional; conditions: Homo sapiens;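 note: confirmatory dose-response assay in RAS-dependent BJ fibroblasts engineered with TERT, LT and ST, with cytotoxicity read by fluorescence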
[9] = molecular target: Mitochondrial peptide methionine sulfoxide reductase (Bos taurus, UniProt P54149); format: functional;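 note: absorbance read-out, biochemical high-throughput dose-response screen for MsrA inhibitors, confirmatory; recombinant bovine MsrA coupled to E. coli TrxB with NADPH and selenocystamine; potency is for inhibitors of MsrA activity on DMSO substrate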
[10] = test system: INS1; assay: INS-1E survival protection against cytokine death – cell-based, luminescence, retest, dose response (AID 449756); format: functional; conditions: Rattus norvegicus;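 note: cell death triggered by IL-1 beta plus TNF-alpha plus IFN-gamma mixture; protective hits raise ATP signal compared with cytokine alone wells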
[11] = reduction of Shn3 3'UTR-driven luciferase in osteoblasts – cell-based, Clone20 osteoblasts, firefly luciferase, cherry-picked, dose response (AID 624132); format: functional;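 note: firefly luciferase luminescence from reporter carrying the Shn3 3'UTR in osteoblasts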
[12] = loss of viability in HepG2 cells – cell-based, CellTiter-Glo, cherry-picked, cytotoxicity control for Shn3 inhibitor project, dose response (AID 624134); format: functional
[13] = non-specific 3'UTR reporter inhibition in Clone20-Shn3RL – cell-based, Renilla luciferase, cherry-picked, counter-screen for Shn3 inhibitor project, dose response (AID 624133); format: functional
[14] = molecular target: Protein Wnt-3a (Mus musculus, UniProt P27467); assay: antagonism of Wnt3a pathway luciferase reporter – Wnt-LIGHT cells, luminescence, selectivity assay for Gli-SUFU antagonist project, dose response (AID 651570); format: functional; conditions: read-out: IC50_Mean;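 note: Wnt-LIGHT reporter cells stimulated with conditioned medium from Wnt3a-producing cells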
[15] = molecular target: COUP transcription factor 2 (Homo sapiens, UniProt P24468); assay: Luminescence-based cell-based high throughput dose response assay to identify inhibitors of COUP-TFII (NR2F2).; format: functional;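 note: HEK293 cells transiently cotransfected with COUP-TFII expression vector and reporter; luciferase reporter luminescence driven by COUP-TFII from the pX2-168 reporter plasmid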
[16] = Luminescence Cell-Based Dose Confirmation HTS to Identify Activators of 5'UTR Stem-Loop Driven Alpha-Synuclein mRNA Translation in H4 Neuroglioblastoma Cells. [Related pubchem assays: 1829 (Project Summary), 1814 (Primary HTS)]; format: functional
[17] = Luminescence Cell-Based Dose Response HTS to Identify Activators of Luciferase Translation or Activity in H4 […] Cells. [Related pubchem assays: 1829 (Project Summary), 1814 (Primary HTS)]; format: functional
[18] = test system: H4; assay: Luminescence Cell-Based Dose Response HTS to Identify Activators of 5'UTR Stem-Loop Driven Prion Protein mRNA Translation in H4 Neuroglioblastoma Cells. [Related pubchem assays: 1829 (Project Summary), 1814 (Primary HTS)]; format: functional; conditions: Homo sapiens
[19] = molecular target: Voltage-dependent T-type calcium channel subunit alpha-1H (Homo sapiens, UniProt O95180); format: functional;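 note: channel activity triggered by adding a high calcium stimulation buffer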
[20] = molecular target: T1, Caspase-3 (Homo sapiens, UniProt P42574); format: functional;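 note: Dose-response selectivity test against caspase-3 for candidate inhibitors of sentrin-specific proteases (SENPs)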
T1 sequence (P42574 whole entry): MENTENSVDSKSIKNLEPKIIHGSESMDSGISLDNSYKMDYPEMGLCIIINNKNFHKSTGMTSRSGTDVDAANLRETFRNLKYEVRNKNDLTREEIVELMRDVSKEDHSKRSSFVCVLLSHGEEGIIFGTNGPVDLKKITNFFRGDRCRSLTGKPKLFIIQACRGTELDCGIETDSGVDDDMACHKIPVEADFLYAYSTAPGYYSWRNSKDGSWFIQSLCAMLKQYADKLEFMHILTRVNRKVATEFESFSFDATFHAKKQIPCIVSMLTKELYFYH

[21] = molecular target: T2, Sentrin-specific protease 7 (Homo sapiens, UniProt Q9BQF6); format: functional;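 note: Luminescence-based dose-response confirmation of ultra-high-throughput screening hits, measuring inhibition of SENP7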
T2 sequence (Q9BQF6 whole entry): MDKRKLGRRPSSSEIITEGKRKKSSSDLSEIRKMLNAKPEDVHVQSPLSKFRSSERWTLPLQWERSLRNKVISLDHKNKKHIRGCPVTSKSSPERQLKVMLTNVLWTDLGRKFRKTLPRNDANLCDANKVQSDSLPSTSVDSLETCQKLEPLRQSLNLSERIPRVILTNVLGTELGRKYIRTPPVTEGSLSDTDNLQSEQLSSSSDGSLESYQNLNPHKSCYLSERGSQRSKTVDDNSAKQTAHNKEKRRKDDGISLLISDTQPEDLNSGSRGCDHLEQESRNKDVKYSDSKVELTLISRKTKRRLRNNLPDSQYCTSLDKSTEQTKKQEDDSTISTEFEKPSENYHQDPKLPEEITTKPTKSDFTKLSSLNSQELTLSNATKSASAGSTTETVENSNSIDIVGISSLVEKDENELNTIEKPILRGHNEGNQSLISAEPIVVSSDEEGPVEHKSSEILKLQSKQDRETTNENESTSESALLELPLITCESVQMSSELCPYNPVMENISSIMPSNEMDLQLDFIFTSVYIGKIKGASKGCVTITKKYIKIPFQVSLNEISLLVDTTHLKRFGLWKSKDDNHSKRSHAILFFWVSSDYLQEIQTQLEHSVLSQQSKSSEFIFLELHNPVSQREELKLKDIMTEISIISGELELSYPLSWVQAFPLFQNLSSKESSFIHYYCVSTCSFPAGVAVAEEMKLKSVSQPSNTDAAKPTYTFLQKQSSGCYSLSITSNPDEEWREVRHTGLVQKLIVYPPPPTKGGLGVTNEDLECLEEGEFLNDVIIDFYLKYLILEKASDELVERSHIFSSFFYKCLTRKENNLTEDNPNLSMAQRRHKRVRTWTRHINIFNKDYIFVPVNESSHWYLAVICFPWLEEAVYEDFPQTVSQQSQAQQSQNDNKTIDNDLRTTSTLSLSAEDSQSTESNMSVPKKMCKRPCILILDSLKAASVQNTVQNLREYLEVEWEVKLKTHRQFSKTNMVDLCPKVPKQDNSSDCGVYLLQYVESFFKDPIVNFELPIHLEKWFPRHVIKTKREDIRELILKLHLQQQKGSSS

[22] = molecular target: T3, Sentrin-specific protease 6 (Homo sapiens, UniProt Q9GZR1); format: functional;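 note: Luminescence-based dose-response confirmatory assay of SENP6 inhibition, following up an ultra-high-throughput screen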
T3 sequence (Q9GZR1 whole entry): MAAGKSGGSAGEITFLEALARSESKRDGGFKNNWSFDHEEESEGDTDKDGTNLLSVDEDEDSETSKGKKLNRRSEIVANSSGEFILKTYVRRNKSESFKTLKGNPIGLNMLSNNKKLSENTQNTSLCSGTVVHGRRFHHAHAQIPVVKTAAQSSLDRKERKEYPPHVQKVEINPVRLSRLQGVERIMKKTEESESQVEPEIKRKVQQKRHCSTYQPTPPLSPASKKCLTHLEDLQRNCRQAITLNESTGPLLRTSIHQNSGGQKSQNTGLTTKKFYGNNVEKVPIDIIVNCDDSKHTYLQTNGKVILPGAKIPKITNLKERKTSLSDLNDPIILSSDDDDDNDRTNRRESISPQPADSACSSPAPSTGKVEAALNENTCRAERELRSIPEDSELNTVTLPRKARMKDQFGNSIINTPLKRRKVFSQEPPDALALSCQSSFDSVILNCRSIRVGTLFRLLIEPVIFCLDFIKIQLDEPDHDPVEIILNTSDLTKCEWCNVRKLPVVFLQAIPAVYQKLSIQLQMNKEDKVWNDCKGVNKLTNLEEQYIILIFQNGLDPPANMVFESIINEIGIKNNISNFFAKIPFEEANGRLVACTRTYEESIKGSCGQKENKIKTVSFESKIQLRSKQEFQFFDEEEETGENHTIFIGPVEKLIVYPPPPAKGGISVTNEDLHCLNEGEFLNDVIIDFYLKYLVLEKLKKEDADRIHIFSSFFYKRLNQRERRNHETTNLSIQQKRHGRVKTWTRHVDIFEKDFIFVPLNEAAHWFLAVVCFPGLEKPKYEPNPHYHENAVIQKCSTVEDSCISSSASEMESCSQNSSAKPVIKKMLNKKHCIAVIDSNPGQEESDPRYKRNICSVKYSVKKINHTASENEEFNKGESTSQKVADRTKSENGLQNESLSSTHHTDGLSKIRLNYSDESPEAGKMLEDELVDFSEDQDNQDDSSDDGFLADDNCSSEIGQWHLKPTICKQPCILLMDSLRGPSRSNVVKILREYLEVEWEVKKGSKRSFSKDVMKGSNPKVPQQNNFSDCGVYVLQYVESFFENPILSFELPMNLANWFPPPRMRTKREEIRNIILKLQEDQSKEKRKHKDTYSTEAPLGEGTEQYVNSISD

[23] = molecular target: T4, Sentrin-specific protease 8 (Homo sapiens, UniProt Q96LD8); format: functional;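 note: luminescence read-out of SENP8 inhibition, dose-response confirmation following an ultra-high-throughput screen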
T4 sequence (Q96LD8 whole entry): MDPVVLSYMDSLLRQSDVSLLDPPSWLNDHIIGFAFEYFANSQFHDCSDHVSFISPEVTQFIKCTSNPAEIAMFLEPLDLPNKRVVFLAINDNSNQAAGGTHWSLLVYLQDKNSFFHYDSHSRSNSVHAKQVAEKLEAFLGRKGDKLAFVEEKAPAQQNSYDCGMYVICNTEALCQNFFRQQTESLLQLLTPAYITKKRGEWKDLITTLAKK

[24] = molecular target: T5, Serine/threonine-protein kinase D3 (Homo sapiens, UniProt O94806); format: functional;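 note: determined within a kinase panel screen, with PRKCN as the panel member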
T5 sequence (O94806 whole entry): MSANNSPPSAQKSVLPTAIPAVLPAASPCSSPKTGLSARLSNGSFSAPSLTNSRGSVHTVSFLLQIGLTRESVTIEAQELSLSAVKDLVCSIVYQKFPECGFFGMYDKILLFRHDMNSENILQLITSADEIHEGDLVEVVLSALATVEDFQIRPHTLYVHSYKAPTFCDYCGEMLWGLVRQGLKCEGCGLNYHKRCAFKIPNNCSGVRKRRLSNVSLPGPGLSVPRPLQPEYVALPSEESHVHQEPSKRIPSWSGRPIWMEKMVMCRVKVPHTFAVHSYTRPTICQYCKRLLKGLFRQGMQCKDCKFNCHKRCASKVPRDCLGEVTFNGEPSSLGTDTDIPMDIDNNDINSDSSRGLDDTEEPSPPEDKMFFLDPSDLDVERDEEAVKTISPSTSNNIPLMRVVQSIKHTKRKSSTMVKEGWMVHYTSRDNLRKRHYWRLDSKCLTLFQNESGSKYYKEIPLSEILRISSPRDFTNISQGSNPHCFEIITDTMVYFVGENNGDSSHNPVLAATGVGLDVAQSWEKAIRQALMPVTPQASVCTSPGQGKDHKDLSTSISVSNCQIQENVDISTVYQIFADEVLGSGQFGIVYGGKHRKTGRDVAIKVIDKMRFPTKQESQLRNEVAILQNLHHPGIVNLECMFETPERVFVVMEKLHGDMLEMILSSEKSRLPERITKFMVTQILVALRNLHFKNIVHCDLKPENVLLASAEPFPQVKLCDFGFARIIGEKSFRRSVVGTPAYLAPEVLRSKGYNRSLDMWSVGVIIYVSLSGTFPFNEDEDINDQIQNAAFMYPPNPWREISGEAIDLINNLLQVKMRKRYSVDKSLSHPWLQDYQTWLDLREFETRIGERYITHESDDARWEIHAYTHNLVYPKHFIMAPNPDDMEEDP

[25] = molecular target: Hepatocyte growth factor receptor (Homo sapiens, UniProt P08581); format: functional;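 note: kinase panel profiling across the kinome, with MET as the panel member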
[26] = molecular target: DNA dC->dU-editing enzyme APOBEC-3A (Homo sapiens, UniProt P31941); assay: Dose Response confirmation of small molecule APOBEC3A DNA Deaminase Inhibitors via a fluorescence-based single-stranded DNA deaminase assay. [Related pubchem assays (depositor defined):AID493011, AID493024]; format: functional
[27] = molecular target: DNA dC->dU-editing enzyme APOBEC-3G (Homo sapiens, UniProt Q9HC16); format: functional;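 note: Dose-response counterscreen measuring inhibition of APOBEC3G DNA deaminase activity, run while confirming APOBEC3A inhibitors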
[28] = molecular target: T6, Carboxy-terminal domain RNA polymerase II polypeptide A small phosphatase 1 (Homo sapiens, UniProt Q9GZU7); assay: CTDSP1 inhibitors, concentration-response, biochemical, absorbance readout, ultra-high-throughput screen actives (AID 540297); format: functional
T6 sequence (Q9GZU7 whole entry): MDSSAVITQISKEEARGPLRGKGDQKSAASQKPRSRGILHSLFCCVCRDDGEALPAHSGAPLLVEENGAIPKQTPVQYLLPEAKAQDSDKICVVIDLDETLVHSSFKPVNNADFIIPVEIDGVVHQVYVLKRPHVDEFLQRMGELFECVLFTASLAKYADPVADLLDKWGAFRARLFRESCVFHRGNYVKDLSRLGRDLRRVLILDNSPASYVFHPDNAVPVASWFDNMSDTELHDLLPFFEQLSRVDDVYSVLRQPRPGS

[29] = molecular target: DNA (cytosine-5)-methyltransferase 1 (Homo sapiens, UniProt P26358); assay: inhibition of DNA methylation by DNMT1 – biochemical, fluorescent molecular beacon, confirmation (AID 602386); format: functional

Sequence of DNA dC->dU-editing enzyme APOBEC-3A (P31941 whole entry): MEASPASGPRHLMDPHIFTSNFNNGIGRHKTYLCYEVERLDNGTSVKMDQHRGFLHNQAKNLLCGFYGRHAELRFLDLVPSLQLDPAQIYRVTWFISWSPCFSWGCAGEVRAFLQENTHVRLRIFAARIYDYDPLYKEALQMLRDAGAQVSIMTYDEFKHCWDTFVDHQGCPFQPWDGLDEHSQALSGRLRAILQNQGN
Sequence of DNA dC->dU-editing enzyme APOBEC-3G (Q9HC16 whole entry, the tested form may be a part): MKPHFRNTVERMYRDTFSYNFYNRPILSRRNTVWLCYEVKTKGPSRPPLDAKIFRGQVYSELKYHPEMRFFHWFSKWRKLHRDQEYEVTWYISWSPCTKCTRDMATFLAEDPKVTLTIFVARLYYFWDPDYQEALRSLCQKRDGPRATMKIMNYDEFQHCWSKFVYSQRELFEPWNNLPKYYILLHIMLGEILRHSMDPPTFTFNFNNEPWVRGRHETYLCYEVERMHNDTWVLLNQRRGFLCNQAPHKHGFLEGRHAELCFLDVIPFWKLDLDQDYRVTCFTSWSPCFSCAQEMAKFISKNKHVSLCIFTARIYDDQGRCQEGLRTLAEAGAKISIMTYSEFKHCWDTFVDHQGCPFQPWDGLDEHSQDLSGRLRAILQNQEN
Sequence of COUP transcription factor 2 (P24468 whole entry): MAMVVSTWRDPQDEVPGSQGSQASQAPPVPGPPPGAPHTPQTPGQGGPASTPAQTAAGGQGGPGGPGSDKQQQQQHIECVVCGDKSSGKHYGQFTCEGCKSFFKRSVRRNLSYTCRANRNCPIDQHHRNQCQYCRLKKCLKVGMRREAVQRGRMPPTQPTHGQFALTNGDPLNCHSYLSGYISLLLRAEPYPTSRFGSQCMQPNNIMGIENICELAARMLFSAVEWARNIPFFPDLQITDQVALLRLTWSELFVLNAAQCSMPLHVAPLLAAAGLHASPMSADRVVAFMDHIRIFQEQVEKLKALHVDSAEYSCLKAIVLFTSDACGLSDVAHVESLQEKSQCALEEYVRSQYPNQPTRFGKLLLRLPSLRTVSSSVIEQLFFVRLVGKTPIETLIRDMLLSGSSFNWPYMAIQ
Sequence of Voltage-dependent T-type calcium channel subunit alpha-1H (O95180 whole entry): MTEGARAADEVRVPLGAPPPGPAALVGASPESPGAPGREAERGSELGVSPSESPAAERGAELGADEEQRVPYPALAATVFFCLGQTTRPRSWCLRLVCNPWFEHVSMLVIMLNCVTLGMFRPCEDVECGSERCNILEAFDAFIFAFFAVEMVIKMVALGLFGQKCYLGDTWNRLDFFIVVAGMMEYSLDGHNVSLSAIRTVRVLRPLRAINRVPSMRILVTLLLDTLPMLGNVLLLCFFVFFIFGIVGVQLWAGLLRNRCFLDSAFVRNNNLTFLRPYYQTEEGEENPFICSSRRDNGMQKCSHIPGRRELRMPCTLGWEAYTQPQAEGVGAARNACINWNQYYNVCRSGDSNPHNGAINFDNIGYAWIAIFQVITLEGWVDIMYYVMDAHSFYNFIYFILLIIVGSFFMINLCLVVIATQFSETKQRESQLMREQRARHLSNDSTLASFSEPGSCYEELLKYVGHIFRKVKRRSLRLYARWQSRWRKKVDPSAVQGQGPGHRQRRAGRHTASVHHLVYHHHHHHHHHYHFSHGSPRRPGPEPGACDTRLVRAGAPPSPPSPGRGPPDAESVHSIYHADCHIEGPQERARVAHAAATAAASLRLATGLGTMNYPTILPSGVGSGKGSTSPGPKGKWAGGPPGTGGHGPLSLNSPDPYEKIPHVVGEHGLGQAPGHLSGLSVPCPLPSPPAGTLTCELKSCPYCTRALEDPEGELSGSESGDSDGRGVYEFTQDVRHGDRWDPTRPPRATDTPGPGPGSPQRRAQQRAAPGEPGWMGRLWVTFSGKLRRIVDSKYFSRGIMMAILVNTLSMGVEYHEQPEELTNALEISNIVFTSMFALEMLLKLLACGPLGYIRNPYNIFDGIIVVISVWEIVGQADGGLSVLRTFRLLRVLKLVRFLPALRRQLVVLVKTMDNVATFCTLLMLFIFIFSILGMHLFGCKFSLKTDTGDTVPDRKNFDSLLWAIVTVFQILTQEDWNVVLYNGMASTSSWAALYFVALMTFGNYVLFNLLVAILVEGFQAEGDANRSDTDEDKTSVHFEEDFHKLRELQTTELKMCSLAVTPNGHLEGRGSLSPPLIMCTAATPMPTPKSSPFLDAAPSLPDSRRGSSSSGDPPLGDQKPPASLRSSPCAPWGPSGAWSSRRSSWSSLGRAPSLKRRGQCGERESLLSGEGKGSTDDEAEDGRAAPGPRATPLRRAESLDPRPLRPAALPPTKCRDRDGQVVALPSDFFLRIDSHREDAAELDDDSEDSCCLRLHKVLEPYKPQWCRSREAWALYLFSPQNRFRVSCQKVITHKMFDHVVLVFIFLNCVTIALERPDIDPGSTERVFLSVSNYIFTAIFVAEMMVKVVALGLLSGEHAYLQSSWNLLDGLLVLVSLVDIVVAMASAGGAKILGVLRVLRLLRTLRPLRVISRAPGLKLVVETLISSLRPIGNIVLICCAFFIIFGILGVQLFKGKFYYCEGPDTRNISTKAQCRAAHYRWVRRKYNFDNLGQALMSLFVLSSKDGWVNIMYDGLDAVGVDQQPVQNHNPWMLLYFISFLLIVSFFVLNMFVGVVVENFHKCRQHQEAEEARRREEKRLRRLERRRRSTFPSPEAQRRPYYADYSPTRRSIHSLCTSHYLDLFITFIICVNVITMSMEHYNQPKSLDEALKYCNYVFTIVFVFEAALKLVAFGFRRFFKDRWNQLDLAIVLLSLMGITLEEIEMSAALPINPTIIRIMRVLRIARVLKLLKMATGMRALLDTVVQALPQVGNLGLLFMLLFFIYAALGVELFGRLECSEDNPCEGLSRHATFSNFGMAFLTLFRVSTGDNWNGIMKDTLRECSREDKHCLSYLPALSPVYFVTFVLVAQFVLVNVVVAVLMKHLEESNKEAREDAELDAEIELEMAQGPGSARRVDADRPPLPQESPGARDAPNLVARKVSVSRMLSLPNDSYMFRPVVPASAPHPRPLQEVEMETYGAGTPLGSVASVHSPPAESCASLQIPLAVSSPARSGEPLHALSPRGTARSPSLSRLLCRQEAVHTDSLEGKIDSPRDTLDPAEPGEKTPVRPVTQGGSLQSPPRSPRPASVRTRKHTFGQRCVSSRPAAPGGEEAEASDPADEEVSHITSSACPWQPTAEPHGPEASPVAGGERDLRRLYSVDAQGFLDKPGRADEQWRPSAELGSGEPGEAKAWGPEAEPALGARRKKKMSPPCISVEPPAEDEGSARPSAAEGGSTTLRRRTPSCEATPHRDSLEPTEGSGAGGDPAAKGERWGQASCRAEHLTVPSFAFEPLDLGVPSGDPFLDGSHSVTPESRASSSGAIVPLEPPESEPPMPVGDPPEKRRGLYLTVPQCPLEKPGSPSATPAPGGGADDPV
Sequence of Protein Wnt-3a (P27467 whole entry): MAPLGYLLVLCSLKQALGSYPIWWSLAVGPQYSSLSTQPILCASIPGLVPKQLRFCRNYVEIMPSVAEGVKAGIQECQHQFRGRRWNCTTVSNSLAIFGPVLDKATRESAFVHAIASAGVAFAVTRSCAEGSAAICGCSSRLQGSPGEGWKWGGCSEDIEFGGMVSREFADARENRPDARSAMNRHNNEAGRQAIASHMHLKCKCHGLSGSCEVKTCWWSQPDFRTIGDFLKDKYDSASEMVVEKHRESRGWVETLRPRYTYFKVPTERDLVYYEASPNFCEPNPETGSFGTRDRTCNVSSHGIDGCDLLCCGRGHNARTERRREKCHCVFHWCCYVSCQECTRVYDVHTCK
Sequence of Hepatocyte growth factor receptor (P08581 whole entry): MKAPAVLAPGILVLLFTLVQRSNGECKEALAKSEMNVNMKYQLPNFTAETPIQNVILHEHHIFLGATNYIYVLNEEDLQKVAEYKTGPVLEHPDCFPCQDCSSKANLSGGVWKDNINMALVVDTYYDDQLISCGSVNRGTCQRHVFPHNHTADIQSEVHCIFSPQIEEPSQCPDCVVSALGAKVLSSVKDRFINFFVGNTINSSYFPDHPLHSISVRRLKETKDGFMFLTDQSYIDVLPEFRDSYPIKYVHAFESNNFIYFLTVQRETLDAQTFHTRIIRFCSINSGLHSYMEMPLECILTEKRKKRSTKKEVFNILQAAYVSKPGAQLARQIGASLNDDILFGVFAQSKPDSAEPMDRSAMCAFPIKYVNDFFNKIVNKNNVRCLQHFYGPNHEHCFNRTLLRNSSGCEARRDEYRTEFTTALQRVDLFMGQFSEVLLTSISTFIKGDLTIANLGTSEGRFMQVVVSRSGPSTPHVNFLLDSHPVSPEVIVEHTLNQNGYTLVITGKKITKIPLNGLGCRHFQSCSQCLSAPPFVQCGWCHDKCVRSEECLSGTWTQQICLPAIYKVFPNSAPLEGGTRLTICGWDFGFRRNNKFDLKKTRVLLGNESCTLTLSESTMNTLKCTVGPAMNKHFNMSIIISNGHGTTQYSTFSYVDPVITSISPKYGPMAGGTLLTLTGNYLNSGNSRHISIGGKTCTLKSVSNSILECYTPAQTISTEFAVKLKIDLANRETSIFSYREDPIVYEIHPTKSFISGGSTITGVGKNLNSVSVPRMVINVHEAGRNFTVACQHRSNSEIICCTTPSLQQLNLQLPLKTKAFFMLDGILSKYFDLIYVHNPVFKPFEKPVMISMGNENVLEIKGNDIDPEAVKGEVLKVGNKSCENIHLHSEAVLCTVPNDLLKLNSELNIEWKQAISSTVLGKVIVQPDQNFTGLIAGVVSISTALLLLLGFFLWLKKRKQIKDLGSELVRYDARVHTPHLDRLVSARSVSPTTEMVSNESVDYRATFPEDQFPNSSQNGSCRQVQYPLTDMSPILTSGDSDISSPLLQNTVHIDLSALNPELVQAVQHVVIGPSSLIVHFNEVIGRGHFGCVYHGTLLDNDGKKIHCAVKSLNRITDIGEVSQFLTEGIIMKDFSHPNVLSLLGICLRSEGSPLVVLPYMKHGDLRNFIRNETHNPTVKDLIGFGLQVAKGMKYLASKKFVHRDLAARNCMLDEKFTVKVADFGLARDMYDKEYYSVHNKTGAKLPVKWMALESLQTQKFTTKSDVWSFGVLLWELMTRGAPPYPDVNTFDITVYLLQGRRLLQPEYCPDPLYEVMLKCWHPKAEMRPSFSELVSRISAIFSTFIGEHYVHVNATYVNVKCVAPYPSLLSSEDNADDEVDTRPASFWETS

CCCc1cc(O)nc(SCC(=O)c2c(N)n(CC(C)C)c(=O)n(C)c2=O)n1
EC50 [1]: 9.13 µM (active)
EC50 [2]: > 150 µM (not active)
EC50 [3]: 18.1 µM (active)
EC50 [4]: 12.1 µM (active)
EC50 [5]: 9.97 µM (inconclusive)
EC50 [6]: > 150 µM (not active)
EC50 [7]: 10.7 µM (active)
EC50 [8]: > 133 µM (inactive)

COc1cc(C2C(C(=O)c3sc(C)nc3C)=C(O)C(=O)N2CCN(C)C)cc(OC)c1OC (centres undefined)
IC50 [9]: 155 µM (inactive)

COc1ccc(CCNc2ncnc3c2oc2ccccc23)cc1OC
AC50 [10]: 1.78 µM (active)
AC50 [11]: 0.524 µM (active)
AC50 [12]: 3.79 µM (active)
AC50 [13]: 1.89 µM (active)
IC50 [14]: 1.07 µM (active)
IC50 [15]: 5.03 µM (active)

Cc1nnc(SCCC(=O)Nc2nc(-c3ccccc3)ns2)s1
EC50 [16]: > 120 µM (not active)
EC50 [17]: 15 µM (active)
EC50 [18]: 8.61 µM (active)
EC50 [19]: 2.54 µM (active)
IC50 [20]: 44.1 µM (active)
IC50 [21]: 13.1 µM (active)
IC50 [22]: 21.9 µM (active)
IC50 [23]: 24.1 µM (active)

CCCC(=O)Nc1cccc(-c2nc(Nc3ccc4[nH]ncc4c3)c3cc(OCCOC)ccc3n2)c1
Ki [24]: 1.26 µM (active)
Ki [25]: 2.51 µM (active)

O=C(COC(=O)c1cc2c(s1)CCC2)Nc1ccc(F)cc1
IC50 [26]: 19.6 µM (active)
IC50 [27]: 34.6 µM (active)
IC50 [28]: 4.34 µM (active)
IC50 [29]: 10.3 µM (active)
